Measurements reported in patent US20050123633A1, “Biological activity-promoting compositions containing soybean germ-origin isoflavone aglycon” (priority 2002, published 2005).

Tests used:
Assay type in all cases: in vivo, rat
OVX female SD rats [1] = assay: Body weight measurement in OVX rats on high-fat feed; details: 17 β-estradiol 1 μg per animal per day, mean ± SD
From the text: (§1) 1) Female SD rats (seven weeks) were procured, and were preliminarily kept for one week. The healthy female SD rats to be used as subjects (eight weeks) were raised in groups with uniform body weight. Rats other than those in the Sham group were ovarectomized (OVX). The Sham group was only laparotomized. After preliminarily keeping for one week after the OVX procedure, the rats were allowed free intake of high-fat feed having the composition shown in Table 2 for a period of 28 days starting on the day following preliminary keeping.
(§2) The rats were also allowed free intake of well water (3 ppm chlorine added). In addition, the environment of the animal facility had constant temperature and humidity of 23±2° C. and 55±10%. The atmosphere conditioning method involved ventilation (15 cycles/h), and the light time was from 8 am to 8 pm. The keeping apparatuses were stainless steel metabolic cages.
The body weights of all rats were measured once on days 0, 7, 14, 21 and 28.
(§3) Evaluation was made using the two-sided test, where significance levels were taken as 5 and 1%.

OVX female SD rats [2] = assay: Urine NO2/NO3 measurement (24-hour accumulated urine); details: 17 β-estradiol 1 μg per animal per day, mean ± SD
From the text: as §1, §2
(§4) Upon completion of administration on day 28, 24-hour fasting was performed, and the rats were necropsied under ether anesthetization in order to collect blood from the abdominal aorta. Regarding serum cholesterol, measurement of total serum cholesterol, HDL cholesterol, LDL cholesterol and cholesterol ester ratio were carried out, and blood neutral fat (TG), blood free fatty acid (FFA) and leptin were measured using enzymatic methods. In addition, the uterus weight per 100 g body weight was measured for the necropsied females rats. Also, body fat determination was made by measuring the weight of removed posterior abdominal wall fat, mesenteric fat, perirenal fat and periovarian fat per 100 g of body weight. The thymus weights for the necropsied female rats were measured based on the weight per 100 g of body weight.
(§5) The results of measurement for each group were expressed as mean values±standard deviations for each of the measured parameters, and significant differences were determined using Student's t-test. Evaluation was made using the two-sided test, where significance levels were taken as 5 and 1%.

OVX female SD rats [3] = assay: Serum cholesterol measurement; details: after 28 days administration and 24-hour fasting, isoflavone aglycones 20 mg per kg body weight, 17 β-estradiol 1 μg per animal per day, mean ± SD; for Cholesterol ester (%): cholesterol ester ratio
From the text: as §1, §2, §4, §3

OVX female SD rats [4] = assay: Blood neutral fat (TG) measurement; details: after 28 days administration and 24-hour fasting, isoflavone aglycones 20 mg per kg body weight, 17 β-estradiol 1 μg per animal per day, mean ± SD
From the text: as §1, §2, §4, §5

OVX female SD rats [5] = assay: Blood free fatty acid (FFA) measurement; details: after 28 days administration and 24-hour fasting, isoflavone aglycones 20 mg per kg body weight, 17 β-estradiol 1 μg per animal per day, mean ± SD
From the text: as §1, §2, §4, §5

OVX female SD rats [6] = assay: Leptin level measurement; details: after 28 days administration and 24-hour fasting, isoflavone aglycones 20 mg per kg body weight, 17 β-estradiol 1 μg per animal per day, mean ± SD
From the text: as §1, §2, §4, §5

OVX female SD rats [7] = assay: Body fat determination (weight of removed fat); details: at necropsy after 28 days, isoflavone aglycones 20 mg per kg body weight, 17 β-estradiol 1 μg per animal per day, mean ± SD
From the text: as §1, §2, §4, §5

OVX female SD rats [8] = assay: Thymus weight measurement; details: for Change in Thymus Weight: at necropsy after 28 days, isoflavone aglycones 20 mg per kg body weight, 17 β-estradiol 1 μg per animal per day, mean ± SD
From the text: as §1, §2, §4, §5

OVX female SD rats [9] = assay: Overall evaluation of biological activity promotion over all measured parameters; details: at an administered amount of 1/4000 relative to isoflavone aglycones
From the text: as §1
Consequently, results were obtained that caused concern over side effects when administered at high dosages.

[10] = day 0, isoflavone aglycones 20 mg per kg body weight in feed
[11] = day 7, isoflavone aglycones 20 mg per kg body weight in feed
[12] = day 14, isoflavone aglycones 20 mg per kg body weight in feed
[13] = day 21, isoflavone aglycones 20 mg per kg body weight in feed
[14] = day 28, isoflavone aglycones 20 mg per kg body weight in feed
[15] = day 0, isoflavone aglycones 20 mg per kg body weight
[16] = day 7, isoflavone aglycones 20 mg per kg body weight
[17] = day 14, isoflavone aglycones 20 mg per kg body weight
[18] = day 21, isoflavone aglycones 20 mg per kg body weight
[19] = day 28, isoflavone aglycones 20 mg per kg body weight

## O=c1c(-c2ccc(O)cc2)coc2cc(O)ccc12 [daidzein]
OVX female SD rats [1]; [10]
  Change in Body Weight: 191.0 ± 7.31 g
OVX female SD rats [1]; [11]
  Change in Body Weight: 216.1 ± 6.86 g
OVX female SD rats [1]; [12]
  Change in Body Weight: 230.6 ± 6.58 g
OVX female SD rats [1]; [13]
  Change in Body Weight: 245.4 ± 7.07 g
OVX female SD rats [1]; [14]
  Change in Body Weight: 257.4 ± 7.71 g
OVX female SD rats [2]; [15]
  Change in NO2/NO3 (urinary): 6.0 ± 0.53 µmol
OVX female SD rats [2]; [16]
  Change in NO2/NO3 (urinary): 6.4 ± 0.54 µmol
OVX female SD rats [2]; [17]
  Change in NO2/NO3 (urinary): 6.4 ± 0.43 µmol
OVX female SD rats [2]; [18]
  Change in NO2/NO3 (urinary): 6.6 ± 0.40 µmol
OVX female SD rats [2]; [19]
  Change in NO2/NO3 (urinary): 6.0 ± 0.40 µmol
OVX female SD rats [3]
  Serum HDL cholesterol: 42.6 ± 2.25 mg/dL
  Serum LDL cholesterol: 36.3 ± 3.45 mg/dL
  Serum Total cholesterol: 81.8 ± 2.57 mg/dL
  Cholesterol ester (%): 70.1 ± 3.01%
OVX female SD rats [4]
  Change in TG (blood neutral fat): 104.8 ± 16.71 mg/dL
OVX female SD rats [5]
  Change in FFA (blood free fatty acid): 379.2 ± 24.45 mg/dL
OVX female SD rats [6]
  Change in Leptin: 1.7 ± 0.12 ng/mL
OVX female SD rats [7]
  Body Fat: Mesenteric fat: 2.8 ± 0.18 g/100 g; body weight
  Body Fat: Periovarian fat: 3.1 ± 0.17 g/100 g; body weight
  Body Fat: Perirenal fat: 3.5 ± 0.20 g/100 g; body weight
  Body Fat: posterior abdominal wall fat: 2.6 ± 0.23 g/100 g; body weight
OVX female SD rats [8]; 28 days
  thymus weight relative to the comparative group 1 (Sham) and the test group 1 (OVX), in words: increase in weight
OVX female SD rats [8]
  Change in Thymus Weight: 0.130 ± 0.02 g/100 g; body weight

## C[C@]12CC[C@@H]3c4ccc(O)cc4CC[C@H]3[C@@H]1CC[C@@H]2O [estradiol, 17 β-estradiol]
OVX female SD rats [1]; [10]
  Change in Body Weight: 192.5 ± 7.12 g
OVX female SD rats [2]; [15]
  Change in NO2/NO3 (urinary): 6.1 ± 0.29 µmol
OVX female SD rats [2]; [16]
  Change in NO2/NO3 (urinary): 7.0 ± 0.60 µmol
OVX female SD rats [2]; [17]
  Change in NO2/NO3 (urinary): 7.8 ± 0.59 µmol
OVX female SD rats [2]; [18]
  Change in NO2/NO3 (urinary): 9.0 ± 0.76 µmol
OVX female SD rats [2]; [19]
  Change in NO2/NO3 (urinary): 9.4 ± 0.39 µmol
OVX female SD rats [3]
  Serum HDL cholesterol: 35.9 ± 3.38 mg/dL
  Serum LDL cholesterol: 38.2 ± 1.74 mg/dL
  Serum Total cholesterol: 72.1 ± 3.86 mg/dL
  Cholesterol ester (%): 70.7 ± 2.80%
OVX female SD rats [4]
  Change in TG (blood neutral fat): 105.1 ± 5.37 mg/dL
OVX female SD rats [5]
  Change in FFA (blood free fatty acid): 362.8 ± 24.41 mg/dL
OVX female SD rats [6]
  Change in Leptin: 0.7 ± 0.28 ng/mL
OVX female SD rats [7]
  Body Fat: Mesenteric fat: 2.5 ± 0.19 g/100 g; body weight
  Body Fat: Periovarian fat: 2.8 ± 0.27 g/100 g; body weight
  Body Fat: Perirenal fat: 3.2 ± 0.22 g/100 g; body weight
  Body Fat: posterior abdominal wall fat: 1.9 ± 0.10 g/100 g; body weight
OVX female SD rats [8]
  Change in Thymus Weight: 0.112 ± 0.01 g/100 g; body weight
OVX female SD rats [9]
  stimulatory (agonistic) action with respect to biological activity, in words: high

## O=c1c(-c2ccc(O)cc2)coc2cc(O)cc(O)c12 [genistein]
OVX female SD rats [1]; [10]
  Change in Body Weight: 197.3 ± 10.18 g
OVX female SD rats [1]; [11]
  Change in Body Weight: 216.9 ± 8.53 g
OVX female SD rats [1]; [12]
  Change in Body Weight: 231.9 ± 9.77 g
OVX female SD rats [1]; [13]
  Change in Body Weight: 249.4 ± 9.81 g
OVX female SD rats [1]; [14]
  Change in Body Weight: 266.8 ± 8.6 g
OVX female SD rats [2]; [15]
  Change in NO2/NO3 (urinary): 6.1 ± 0.34 µmol
OVX female SD rats [2]; [16]
  Change in NO2/NO3 (urinary): 6.4 ± 0.39 µmol
OVX female SD rats [2]; [17]
  Change in NO2/NO3 (urinary): 6.3 ± 0.56 µmol
OVX female SD rats [2]; [18]
  Change in NO2/NO3 (urinary): 6.2 ± 0.40 µmol
OVX female SD rats [2]; [19]
  Change in NO2/NO3 (urinary): 6.4 ± 0.4 µmol
OVX female SD rats [3]
  Serum LDL cholesterol: 40.6 ± 1.76 mg/dL
  Serum Total cholesterol: 85.8 ± 2.53 mg/dL
OVX female SD rats [4]
  Change in TG (blood neutral fat): 116.9 ± 9.90 mg/dL
OVX female SD rats [5]
  Change in FFA (blood free fatty acid): 400.0 ± 19.01 mg/dL
OVX female SD rats [6]
  Change in Leptin: 1.9 ± 0.25 ng/mL
OVX female SD rats [7]
  Body Fat: Mesenteric fat: 2.6 ± 0.14 g/100 g; body weight
  Body Fat: Periovarian fat: 3.0 ± 0.26 g/100 g; body weight
  Body Fat: Perirenal fat: 3.7 ± 0.17 g/100 g; body weight
  Body Fat: posterior abdominal wall fat: 2.8 ± 0.25 g/100 g; body weight
OVX female SD rats [8]
  Change in Thymus Weight: 0.110 ± 0.02 g/100 g; body weight
